According to patent US10172830B2, “Pyrazolone compounds having human neutrophil elastase inhibitory properties” (CHIESI FARMACEUTICI S.P.A., priority 2016, dated 2019):

Biological target: T1, human neutrophil elastase (HNE) (Homo sapiens, UniProt P08246)
T1 construct: purchased Sigma E8140
T1 sequence (P08246 30-247 limits assumed): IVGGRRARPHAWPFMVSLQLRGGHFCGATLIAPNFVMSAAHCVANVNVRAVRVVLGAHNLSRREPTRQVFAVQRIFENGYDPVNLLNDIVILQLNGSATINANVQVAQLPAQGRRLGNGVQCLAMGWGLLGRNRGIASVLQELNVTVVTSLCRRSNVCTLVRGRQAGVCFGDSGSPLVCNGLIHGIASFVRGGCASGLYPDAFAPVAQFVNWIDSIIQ
Test: HNE enzyme assay (human neutrophil elastase enzyme activity assay)
Format: biochemical
Conditions: human leukocyte elastase 0.00072 U/mL; substrate MeOSuc-Ala-Ala-Pro-Val-AMC 100 μM; 25° C. for 30 minutes; at least two separate experiments; read-out: HNE inhibition (HNE enzyme inhibition, IC50 values)
Summary of the method: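 Human leukocyte elastase (0.00072 U/mL) with 100 μM MeOSuc-AAPV-AMC in Tris/NaCl/CaCl2/Brij-35 buffer, pH 7.5, 1% DMSO, 30 min at 25 °C; stopped with soybean trypsin inhibitor. AMC fluorescence (380/460 nm) as % inhibition of control; IC50 from dose-response curves, ≥2 experiments.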

Compound	IC50 [nM]
Cn1c(-c2ccnn2-c2ccc(C#N)cc2)c(C(=O)N[C@H]2C[C@H](c3ncc(C[N+](C)(C)C)o3)C2)c(=O)n1-c1cccc(C(F)(F)F)c1 [Example 68, [2-(Trans-3-{[2′-(4-cyano-phenyl)-2-methyl-5-oxo-1-(3-trifluoromethyl-phenyl)-2,5-dihydro-1H,2′H-[3,3′]bipyrazolyl-4-carbonyl]-amino}-cyclobutyl)-oxazol-5-ylmethyl]-trimethyl-ammonium benzene sulphonate]	< 1
Cn1c(-c2ccnn2-c2ccc(C#N)cc2)c(C(=O)N[C@H]2CC[C@H](C[n+]3ccccc3)CC2)c(=O)n1-c1cccc(C(F)(F)F)c1 [Example 69, 1-(4-{[2′-(4-Cyano-phenyl)-2-methyl-5-oxo-1-(3-trifluoromethyl-phenyl)-2,5-dihydro-1H,2′H-[3,3′]bipyrazolyl-4-carbonyl]-amino}-cyclohexylmethyl)-pyridinium bromide]	< 1
Cn1cc[n+](C[C@H]2CC[C@H](NC(=O)c3c(-c4ccnn4-c4ccc(C#N)cc4)n(C)n(-c4cccc(C(F)(F)F)c4)c3=O)CC2)c1 [Example 70, 1-(4-{[2′-(4-Cyano-phenyl)-2-methyl-5-oxo-1-(3-trifluoromethyl-phenyl)-2,5-dihydro-1H,2′H-[3,3′]bipyrazolyl-4-carbonyl]-amino}-cyclohexylmethyl)-3-methyl-3H-imidazol-1-ium bromide]	< 1
CCOC(=O)c1c(-c2ccnn2-c2ccc(C#N)cc2)n(CC)n(-c2cccc(C(F)(F)F)c2)c1=O [Example 71, 2′-(4-Cyano-phenyl)-2-ethyl-5-oxo-1-(3-trifluoromethyl-phenyl)-2,5-dihydro-1H,2′H-[3,3′]bipyrazolyl-4-carboxylic acid ethyl ester]	< 1
Cn1c(-c2nccn2-c2ccc(C#N)cc2)c(C(=O)NC2CCCC2)c(=O)n1-c1cccc(C(F)(F)F)c1 [Example 72, 5-[1-(4-Cyano-phenyl)-1H-imidazol-2-yl]-1-methyl-3-oxo-2-(3-trifluoromethyl-phenyl)-2,3-dihydro-1H-pyrazole-4-carboxylic acid cyclopentyl-amide]	< 1
